# Test results from EP0183129A1, “Quinolonecarboxylic acid derivatives” (KYORIN PHARMACEUTICAL CO., LTD., priority 1984, dated 1986).
# What was measured:
# [1] = tested on: Bacillus subtilis PCI 219; assay: In vitro antibacterial activity, MIC (standard strain); format: cell-based; conditions: Bacillus subtilis, PCI219
# [2] = tested on: Staphylococcus aureus 209 P; assay: as above; format: cell-based; conditions: Staphylococcus aureus, 209P
# [3] = tested on: S. aureus Smith; assay: as above; format: cell-based, Staphylococcus aureus; conditions: Staphylococcus aureus; S. aureus Smith; 10^6 cells/ml; standard strain
# [4] = tested on: S. aureus IID 670 (Terajima); assay: as above; format: cell-based, Staphylococcus aureus; conditions: Staphylococcus aureus, IID670
# [5] = tested on: S. epidermidis IID 866; assay: as above; format: cell-based; conditions: Staphylococcus epidermidis, IID866
# [6] = tested on: Streptococcus pyogenes S-8; assay: as above; format: cell-based; conditions: Streptococcus pyogenes, S8
# [7] = tested on: S. pyogenes IID 692; assay: as above; format: cell-based; conditions: Streptococcus pyogenes, IID692
# [8] = tested on: S. pneumoniae IID 552; assay: as above; format: cell-based; conditions: Streptococcus pneumoniae, IID552
# [9] = tested on: S. faecalis IID 682; assay: as above; format: cell-based; conditions: Enterococcus faecalis, IID682
# [10] = tested on: Escherichia coli NIHJ JC-2; assay: as above; format: cell-based; conditions: Escherichia coli, NIHJJC2
# [11] = tested on: E. coli ATCC 10536; assay: as above; format: cell-based; conditions: Escherichia coli, ATCC10536
# [12] = tested on: E. coli ML 4707; assay: as above; format: cell-based; conditions: Escherichia coli, ML4707
# [13] = tested on: Proteus vulgaris IFO 3167; assay: as above; format: cell-based; conditions: Proteus vulgaris, IFO3167
# [14] = tested on: P. mirabilis IID 994; assay: as above; format: cell-based; conditions: Proteus mirabilis, IID994
# [15] = tested on: Morganella morganii IID 602; assay: as above; format: cell-based; conditions: Morganella morganii, IID602
# [16] = tested on: Enterobacter cloacae IID 977; assay: as above; format: cell-based; conditions: Enterobacter cloacae, IID977
# [17] = tested on: Citrobacter freundii IID 976; assay: as above; format: cell-based; conditions: Citrobacter freundii, IID976
# [18] = tested on: Klebsiella pneumoniae KY(GN)6445; assay: as above; format: cell-based; conditions: Klebsiella pneumoniae
# [19] = tested on: K. pneumoniae 1-220S; assay: as above; format: cell-based; conditions: Klebsiella pneumoniae, 1220S
# [20] = tested on: Salmonella entritidis IID 604; assay: as above; format: cell-based; conditions: Salmonella, IID604
# [21] = tested on: Shigella sonnei IID 969; assay: as above; format: cell-based; conditions: IID969, 10^6 cells/ml
# Method: Experiment-1 In vitro antibacterial activity
# The in vitro antibacterial activity against gram-positive and gram-negative bacteria has been investivated.
# The minimum inhibitory concentration (MIC) was determined in accordance with the method recommended by Japan Society of Chemotherapy.
# [22] = tested on: Yersinia enterocolitica IID 981; assay: as above; format: cell-based; conditions: Yersinia enterocolitica, IID981
# [23] = tested on: Serratia marcescens IID 618; assay: as above; format: cell-based; conditions: Serratia marcescens, IID618
# [24] = tested on: S. marcescens GN 7577; assay: as above; format: cell-based; conditions: Serratia marcescens, GN7577
# [25] = tested on: Pseudomonas aeruginosa V-1; assay: as above; format: cell-based; conditions: Pseudomonas aeruginosa, V1
# [26] = tested on: P. aeruginosa IFO 12689; assay: as above; format: cell-based, Pseudomonas aeruginosa; conditions: Pseudomonas aeruginosa, IFO12689
# [27] = tested on: P. aeruginosa IID 1210; assay: as above; format: cell-based; conditions: Pseudomonas aeruginosa, IID1210
# [28] = tested on: Acinetobacter anitratus IID 876; assay: as above; format: cell-based; conditions: Acinetobacter calcoaceticus, IID876
# [29] = tested on: Alcaligenes faecalis 0104002; assay: as above; format: cell-based; conditions: Alcaligenes faecalis, 0104002
# [30] = tested on: Bacteroides fragilis GM 7000; assay: as above; format: cell-based; conditions: Bacteroides fragilis, GM7000
# [31] = tested on: B. fragilis 0558; assay: as above; format: cell-based, Bacteroides fragilis; conditions: Bacteroides fragilis, 0558
# [32] = tested on: B. fragilis 25285; assay: as above; format: cell-based, Bacteroides fragilis; conditions: Bacteroides fragilis, 25285
# [33] = tested on: Fusobacterium varium KYA 8501; assay: as above; format: cell-based; conditions: Fusobacterium varium, KYA8501
# [34] = tested on: Clostridium perfringens KYA 13123; assay: microbe, parasite or virus in culture; format: cell-based; conditions: KYA13123
# [35] = tested on: C. ramosum; assay: In vitro antibacterial activity, MIC (standard strain); format: cell-based; conditions: Thomasclavelia ramosa
# [36] = tested on: S. pneumoniae 15; assay: In vitro antibacterial activity, MIC (clinical isolates); format: cell-based; conditions: Streptococcus pneumoniae, 15
# [37] = tested on: S. pneumoniae 2054; assay: as above; format: cell-based; conditions: Streptococcus pneumoniae, 2054
# [38] = tested on: S. pneumoniae 2950; assay: as above; format: cell-based; conditions: Streptococcus pneumoniae, 2950
# [39] = tested on: S. pneumoniae 3227; assay: as above; format: cell-based; conditions: Streptococcus pneumoniae, 3227
# [40] = tested on: S. pyogenes 3130; assay: as above; format: cell-based; conditions: Streptococcus pyogenes
# [41] = tested on: S. pyogenes 3102; assay: as above; format: cell-based; conditions: Streptococcus pyogenes, 3102
# [42] = tested on: S. pyogenes 3107; assay: as above; format: cell-based; conditions: Streptococcus pyogenes, 3107
# [43] = tested on: S. pyogenes 4340; assay: as above; format: cell-based; conditions: Streptococcus pyogenes, 4340
# [44] = tested on: S. pyogenes 4372; assay: as above; format: cell-based; conditions: Streptococcus pyogenes, 4372
# [45] = tested on: S. agalactiae 4394; assay: as above; format: cell-based; conditions: Streptococcus agalactiae, 4394
# [46] = tested on: S. agalactiae 4049; assay: as above; format: cell-based; conditions: Streptococcus agalactiae, 4049
# [47] = tested on: S. agalactiae 4342; assay: as above; format: cell-based; conditions: Streptococcus agalactiae, 4342
# [48] = tested on: S. agalactiae 4470; assay: as above; format: cell-based; conditions: Streptococcus agalactiae, 4470
# [49] = tested on: S. agalactiae 4368; assay: as above; format: cell-based; conditions: Streptococcus agalactiae, 4368
# [50] = tested on: S. agalactiae 4468; assay: as above; format: cell-based; conditions: Streptococcus agalactiae, 4468
# [51] = tested on: S. faecalis 49; assay: as above; format: cell-based; conditions: Enterococcus faecalis, 49
# [52] = tested on: S. faecalis 214; assay: as above; format: cell-based; conditions: Enterococcus faecalis, 214
# [53] = tested on: S. faecalis 401; assay: as above; format: cell-based; conditions: Enterococcus faecalis, 401
# [54] = tested on: S. faecalis 402; assay: as above; format: cell-based; conditions: Enterococcus faecalis, 402
smiles,measurement,setting,value
"NCC1CCN(c2cc3c(cc2F)c(=O)c(C(=O)O)cn3C2CC2)C1 (stereo not drawn) [Example 6, 7-(3-Aminomethyl-l-pyrrolidinyl)-l-cyclopropyl-6-fluoro-l,4-dihydro-4-oxo-3-quinolinecarboxylic acid]",MIC,[1],0.05 µg/mL
same,MIC,[2],0.05 µg/mL
same,MIC,[3],0.2 µg/mL
same,MIC,[4],0.05 µg/mL
same,MIC,[5],0.05 µg/mL
same,MIC,[6],0.1 µg/mL
same,MIC,[7],0.2 µg/mL
same,MIC,[8],0.1 µg/mL
same,MIC,[9],0.39 µg/mL
same,MIC,[10],0.05 µg/mL
same,MIC,[11],0.05 µg/mL
same,MIC,[12],0.05 µg/mL
same,MIC,[13],0.05 µg/mL
same,MIC,[14],0.1 µg/mL
same,MIC,[15],0.39 µg/mL
same,MIC,[16],0.2 µg/mL
same,MIC,[17],0.1 µg/mL
same,MIC,[18],0.1 µg/mL
same,MIC,[19],0.2 µg/mL
same,MIC,[20],0.2 µg/mL
same,MIC,[21],0.05 µg/mL
same,MIC,[22],0.2 µg/mL
same,MIC,[23],0.39 µg/mL
same,MIC,[24],3.13 µg/mL
same,MIC,[25],0.78 µg/mL
same,MIC,[26],0.78 µg/mL
same,MIC,[27],3.13 µg/mL
same,MIC,[28],0.78 µg/mL
same,MIC,[29],1.56 µg/mL
same,MIC,[30],6.25 µg/mL
same,MIC,[31],6.25 µg/mL
same,MIC,[32],12.5 µg/mL
same,MIC,[33],25 µg/mL
same,MIC,[34],3.13 µg/mL
same,MIC,[35],12.5 µg/mL
same,MIC,[36],0.2 µg/mL
same,MIC,[37],0.39 µg/mL
same,MIC,[38],0.2 µg/mL
same,MIC,[39],0.2 µg/mL
same,MIC,[40],0.05 µg/mL
same,MIC,[41],0.05 µg/mL
same,MIC,[42],0.05 µg/mL
same,MIC,[43],0.05 µg/mL
same,MIC,[44],0.1 µg/mL
same,MIC,[45],0.39 µg/mL
same,MIC,[46],0.39 µg/mL
same,MIC,[47],0.2 µg/mL
same,MIC,[48],0.2 µg/mL
same,MIC,[49],0.2 µg/mL
same,MIC,[50],0.2 µg/mL
same,MIC,[51],0.39 µg/mL
same,MIC,[52],0.39 µg/mL
same,MIC,[53],0.39 µg/mL
same,MIC,[54],0.39 µg/mL
